Several values for one entry are separate records, joined by “and”; a condition that tells them apart may be missing. Identical values can stand only once.
Legend:
liver = test: Lipidomic profiling of liver; format: in vivo, mice; details: for Ceramide 18:1/16:0 content of liver / Ceramide 18:1/18:0 content of liver / Ceramide 18:1/20:0 content of liver / Ceramide 18:1/22:0 content of liver / Ceramide 18:1/22:1 content of liver / Ceramide 18:1/24:0 content of liver / Ceramide 18:1/24:1 content of liver / SM 34:1 content of liver / SM 36:1 content of liver / SM 38:1 content of liver / SM 40:1 content of liver / SM 40:2 content of liver / SM 42:1 content of liver / SM 42:2 content of liver / SM 42:3 content of liver: individual mice; for Ceramide 18:1/16:0 content of liver / Ceramide 18:1/18:0 content of liver / Ceramide 18:1/20:0 content of liver / Ceramide 18:1/22:0 content of liver / Ceramide 18:1/22:1 content of liver / Ceramide 18:1/24:0 content of liver / Ceramide 18:1/24:1 content of liver: raw data Fig 3j; for SM 34:1 content of liver / SM 36:1 content of liver / SM 38:1 content of liver / SM 40:1 content of liver / SM 40:2 content of liver / SM 42:1 content of liver / SM 42:2 content of liver / SM 42:3 content of liver: raw data Fig 3k
Description: Male C57BL6/J mice were obtained from the Animal Resources Centre in Perth (WA, Australia). Mice were housed at 22 ± 1 °C with a controlled 12:12 h light-dark cycle and had ad libitum access to water and either chow (8% calories from fat) or HFD (45% calories from fat)[66] for 4–6 weeks. […] Treatment was commenced at the same time as mice were randomised to dietary groups. The experiments were approved by the UNSW animal care and ethics committee (ACEC 15/48B), and followed guidelines issued by the National Health and Medical Research Council of Australia.
Lipids were extracted from frozen tissue samples or cells using a two-phase procedure with methyl-tert-butyl ether (MTBE)/methanol/water (10:3:2.5, v/v/v)[67]. Frozen tissue samples (~20 mg) were homogenized in 0.2 mL methanol containing 0.01% butylated hydroxytoluene (BHT), using a Precellys 24 homogenizer and Cryolys cooling unit (Bertin Technologies) with CK14 (1.4-mm ceramic) beads. The homogenates were spiked with an internal standard mixture comprising 5 nmole 19:0/19:0 phosphatidylcholine and 2 nmole each of 17:0/17:0 phosphatidylethanolamine, 17:0/17:0 phosphatidylserine, 17:0/17:0 d5-diacylglycerol, 17:0/17:0 phosphatidylglycerol, 14:0/14:0/14:0/14:0 cardiolipin, 18:1/12:0 SM, 18:1/17:0 ceramide, 18:1/12:0 glucosylceramide, 18:1/12:0 lactosylceramide, 18:1/12:0 sulfatide (all from Avanti Polar Lipids, USA), and 17:0/17:0/17:0 TAG (Cayman Chemical, USA), then transferred to 10 mL screw cap glass tubes. The homogenization tubes containing beads were then washed with another 0.3 mL methanol, and this wash was combined with the first methanol extract, after which 1.7 mL MTBE was added and the samples were sonicated in an ice-cold sonicating water bath (Thermoline Scientific, Australia) for 30 min. Phase separation was induced by addition of 417 µL of mass spectrometry-grade water followed by vortexing and centrifugation at 1000 × g for 10 min. The upper organic phase was collected into 5 mL glass tubes. The lower phase was re-extracted by adding 1 mL MTBE, 300 μL methanol, and 250 μL water. The organic phases were combined in the 5 mL glass tubes and dried under vacuum in a Savant SC210 SpeedVac (Thermo Scientific), then reconstituted in 500 μL methanol and stored at −20 °C until analysis.
Lipidomic profiling was performed on a QExactive Plus mass spectrometer with heated electrospray ionization (HESI) probe and a Dionex UltiMate 2000 LC pump (Thermo Fisher Scientific). Extracts were resolved on a 2.1 × 100 mm Waters Acquity C18 UPLC column (1.7 µm […]), using a binary gradient in which mobile phase A consisted of acetonitrile:water (60:40), 10 mM ammonium formate, 0.1% formic acid; and mobile phase B was isopropanol:acetonitrile (90:10), 10 mM ammonium formate, 0.1% formic acid[68]. The flow rate was 260 µL/min and column oven 55 °C. Data was acquired in full scan/data-dependent MS^2 mode (full scan resolution 70,000 FWHM, scan range 400–1200 m/z). The ten most abundant ions in each cycle were subjected to MS^2 using an isolation window of 1.4 m/z, collision energy 30 eV, resolution 17,500, maximum integration time 110 ms and dynamic exclusion window 10 s. An exclusion list of background ions was used based on a solvent blank. LipidSearch v4.1.30 software (ThermoFisher Scientific) was used for chromatogram alignment, peak identification and integration. Each lipid peak was manually verified for column elution time and characteristic fragment ions. Data were then exported to an Excel spreadsheet for normalisation of each lipid to its class-specific internal standard, and lipid concentrations were calculated relative to the internal standard.
Data were log transformed, then subjected to two-tailed t-tests adjusted for multiple comparisons using GraphPad PRISM (Benjamini, Krieger and Yekutieli correction, Q = 1%).

C57BL6/J mice = test: Hyperinsulinemic-euglycemic clamps; format: in vivo; details: 5 mg/kg, chow or HFD
Description: At 5 weeks of diet/drug treatment, mice underwent surgery to implant catheters into the left carotid artery and right jugular vein. Catheters were flushed every 1–2 days with heparinised saline to maintain patency. Approximately 6–8 days post surgery, and after a ~5 h fast, a hyperinsulinemic-euglycemic clamp was conducted. Mice were conscious, unrestrained and were not handled during the procedure to minimize stress. At −90 min, a primed (5 μCi) continuous infusion (0.05 μCi/min) of [3,^3H]-glucose (PerkinElmer) was commenced. Samples were collected at −30, −20, −10 and 0 min for basal glucose turnover (Rd) determination. […] Once blood glucose was stable, four sequential samples were taken to determine insulin-stimulated glucose turnover. A bolus of 2[^14C]deoxyglucose (10 μCi; PerkinElmer) was then administered and blood sampled at 2, 5, 10, 15, 20 and 30 min, prior to collection of muscles for determination of glucose uptake.

[1] = system: permeabilised extensor digitorum longus muscle fibres; test: Respiratory complex activities in permeabilized extensor digitorum longus muscle fibres; format: in vivo, mice; details: three weeks, 5 mg/kg
Description: Permeabilized extensor digitorum longus (EDL) fibres were prepared and mitochondrial function analyzed according to published protocols with some modifications[71],[72]. Briefly, EDL muscles were dissected tendon-to-tendon into ice-cold isolation buffer A (10 mM Ca-EGTA buffer, 20 mM imidazole, 20 mM taurine, 49 mM K-MES, 3 mM K2HPO4, 9.5 mM MgCl2, 5.7 mM ATP, 15 mM phosphocreatine, 1 μM leupeptin, pH 7.1) and fibres were prepared immediately. Fibre bundles (~3 mg wet weight) were treated with saponin (50 μg/mL) for 20 min at 4 °C and subsequently washed in cold respiration medium B (0.5 mM EGTA, 3 mM MgCl2.6H2O, 20 mM taurine, 10 mM KH2PO4, 20 mM HEPES, 0.1% BSA, 15 mM potassium-lactobionate, 110 mM mannitol, 0.3 mM dithiothreitol, pH 7.1). […] Fibres were recovered after polarography and results were expressed as nmoles of O2/min/mg of tissue. Mitochondrial membrane integrity was verified by cytochrome c release test[71],[72].

## C[C@@](N)(CO)CCc1ccc(OCc2ccccc2)cc1 [G024, (2S)-2-amino-4-(4′-benzyloxyphenyl)-2-methyl-1-butanol]
other
  melting point: 196.7 to 197.6 °C

## C[C@@](N)(CO)CCc1ccc(OCc2ccc(Cl)c(Cl)c2)cc1 [P053, (S)-2-amino-4-(4-(3,4-dichlorobenzyloxy)phenyl)-2-methylbutan-1-ol]
liver; Chow + P053
  Ceramide 18:1/16:0 content of liver: 0.263 and 0.826 and 0.657 and 1.600 and 0.958 and 0.311 and 0.952 and 1.950 and 1.430 and 1.980
  Ceramide 18:1/18:0 content of liver: 0.468 and 0.536 and 0.500 and 0.564 and 0.490 and 0.488 and 0.800 and 0.676 and 0.526 and 0.572
  Ceramide 18:1/20:0 content of liver: 0.373 and 0.356 and 0.495 and 0.460 and 0.417 and 0.442 and 0.880 and 0.398 and 0.505 and 0.396
  Ceramide 18:1/22:0 content of liver: 3.920 and 1.760 and 3.420 and 5.450 and 4.500 and 5.040 and 3.220 and 5.390 and 4.280 and 5.730
  Ceramide 18:1/22:1 content of liver: 0.723 and 0.782 and 0.523 and 0.904 and 0.601 and 0.629 and 0.682 and 0.527 and 0.912 and 0.679
  Ceramide 18:1/24:0 content of liver: 3.590 and 2.080 and 4.670 and 4.260 and 5.640 and 4.820 and 3.660 and 3.820 and 3.320 and 4.860
  Ceramide 18:1/24:1 content of liver: 6.030 and 5.880 and 4.990 and 7.190 and 10.500 and 7.070 (2×) and 5.770 and 7.700 and 9.200
  SM 34:1 content of liver: 166.01 and 387.90 and 294.94 and 188.63 and 560.02 and 385.72 and 339.20 and 244.42 and 416.06 and 213.21
  SM 36:1 content of liver: 17.50 and 23.09 and 28.72 and 28.48 and 31.35 and 32.32 and 36.07 and 17.60 and 29.53 and 28.44
  SM 38:1 content of liver: 20.23 and 36.64 and 18.78 and 30.07 and 30.24 and 24.30 and 33.98 and 28.61 and 27.66 and 25.39
  SM 40:1 content of liver: 190.28 and 236.56 and 278.04 and 382.12 and 238.06 and 386.25 and 326.88 and 330.28 and 377.35 and 269.17
  SM 40:2 content of liver: 31.01 and 36.97 and 24.71 and 36.72 and 38.54 and 35.80 and 48.00 and 37.75 and 38.85 and 32.99
  SM 42:1 content of liver: 17.79 and 25.33 and 19.04 and 17.96 and 14.02 and 33.47 and 24.89 and 25.97 and 20.36 and 14.52
  SM 42:2 content of liver: 265.43 and 723.53 and 60.59 and 173.83 and 445.88 and 448.77 and 411.18 and 225.87 and 409.74 and 354.33
  SM 42:3 content of liver: 12.99 and 95.71 and 34.45 and 42.03 and 46.27 and 40.91 and 37.02 and 32.31 and 26.34 and 23.58
liver; HFD + P053
  Ceramide 18:1/16:0 content of liver: 1.320 and 0.972 and 0.437 and 1.310 and 0.312 and 0.006 and 2.340 and 2.140 and 1.290 and 1.500
  Ceramide 18:1/18:0 content of liver: 0.435 and 0.273 and 0.474 and 0.459 and 0.643 and 0.366 and 0.820 and 0.267 and 0.974 and 0.526
  Ceramide 18:1/20:0 content of liver: 0.582 and 0.659 and 1.010 and 1.000 and 0.971 and 0.637 and 0.716 and 0.382 and 1.670 and 1.340
  Ceramide 18:1/22:0 content of liver: 5.900 and 4.030 and 8.630 and 5.080 and 3.630 and 4.930 and 8.270 and 6.990 and 8.250 and 9.280
  Ceramide 18:1/22:1 content of liver: 0.333 and 0.644 and 0.674 and 0.925 and 0.703 and 0.380 and 0.572 and 0.319 and 0.786 and 0.444
  Ceramide 18:1/24:0 content of liver: 5.470 and 0.260 and 4.890 and 2.480 and 1.780 and 2.580 and 4.330 and 4.610 and 7.520 and 5.820
  Ceramide 18:1/24:1 content of liver: 6.580 and 2.880 and 4.960 and 4.030 and 5.720 and 2.860 and 6.330 and 6.390 and 11.600 and 5.550
  SM 34:1 content of liver: 482.51 and 71.17 and 450.03 and 341.58 and 602.82 and 140.43 and 342.86 and 326.17 and 1409.61 and 780.28
  SM 36:1 content of liver: 53.21 and 102.16 and 78.05 and 79.54 and 65.66 and 116.67 and 78.22 and 28.49 and 259.61 and 108.18
  SM 38:1 content of liver: 71.47 and 53.18 and 46.58 and 23.22 and 42.32 and 78.12 and 59.56 and 48.00 and 174.38 and 50.63
  SM 40:1 content of liver: 580.97 and 447.50 and 671.33 and 376.94 and 209.01 and 396.09 and 367.60 and 345.17 and 872.91 and 711.11
  SM 40:2 content of liver: 46.18 and 47.77 and 24.90 and 19.09 and 21.42 and 31.04 and 27.87 and 23.30 and 72.99 and 30.73
  SM 42:1 content of liver: 18.56 and 11.22 and 9.61 and 4.95 and 13.26 and 9.80 and 20.61 and 8.52 and 19.00 and 16.17
  SM 42:2 content of liver: 531.45 and 245.25 and 263.63 and 192.83 and 186.28 and 157.29 and 222.03 and 342.17 and 572.48 and 255.77
  SM 42:3 content of liver: 38.83 and 26.76 and 24.26 and 23.94 and 22.31 and 29.44 and 41.75 and 49.23 and 92.66 and 37.38
liver; chow or HFD
  265 lipids measured in liver: none was significantly affected
C57BL6/J mice
  glucose infusion rate, peripheral glucose disposal, insulin-stimulated glucose uptake in SkM: no impact
[1]
  complex II activity: trend for an increase
  respiratory activity with complex I and IV substrates: significant increase
